Test results reported in publication PMC3070160 (Biochemistry, 2010).
Blank lines part the entries; values can stand above or below the compound they belong to.

Columns and labels:
Assay type in all cases: binding
[1] = molecular target: T1, yCBS (yeast cystathionine β-synthase) (Saccharomyces cerevisiae, UniProt P32582); experiment: double-mixing stopped-flow, […] nm decay, koff/kon
T1 sequence (P32582 1-507): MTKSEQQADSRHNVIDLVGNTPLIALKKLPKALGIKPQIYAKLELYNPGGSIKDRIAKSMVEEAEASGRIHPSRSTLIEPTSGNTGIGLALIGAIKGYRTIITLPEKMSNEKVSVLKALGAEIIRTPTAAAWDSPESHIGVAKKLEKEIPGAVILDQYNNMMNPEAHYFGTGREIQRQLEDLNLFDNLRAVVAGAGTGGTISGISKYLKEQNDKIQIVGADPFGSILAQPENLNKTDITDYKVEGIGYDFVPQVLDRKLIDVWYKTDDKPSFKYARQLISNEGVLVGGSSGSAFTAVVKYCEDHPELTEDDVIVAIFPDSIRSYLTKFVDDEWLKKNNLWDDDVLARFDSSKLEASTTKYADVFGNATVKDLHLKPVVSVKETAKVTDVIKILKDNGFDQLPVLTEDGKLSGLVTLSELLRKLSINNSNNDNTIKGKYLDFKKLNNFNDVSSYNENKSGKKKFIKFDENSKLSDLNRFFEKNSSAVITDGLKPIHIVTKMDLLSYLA

[2] = molecular target: T1, yCBS (yeast cystathionine β-synthase); experiment: UV-visible spectrum of enzyme as isolated; details: internal aldimine with Lys53; covalent
[3] = molecular target: T1, yCBS (yeast cystathionine β-synthase); experiment: stopped-flow, aminoacrylate formation at […] nm, hyperbolic fit of kobs

Kd [1]: 0.37 ± 0.02 mM
Compound: N[C@@H](CCS)C(=O)O [L-homocysteine]

Compound: Cc1ncc(COP(=O)(O)O)c(C=O)c1O [PLP]
UV-visible spectrum of enzyme as isolated [2]: protonated Schiff base (internal aldimine) between Lys53 in the active site and the PLP

Kd [3]: 14.4 ± 1.7 mM
Compound: N[C@@H](CO)C(=O)O [L-serine]
